Consider eleven compounds from BindingDB's records for doi:10.1021/jm0000416 (University of Paris, 2000).

Numbered stars: 1 amine (or outer) side, 2 acyl side, 3 side chain; on linkers, the order of the positions; unused ones are H or OH. Square brackets hold non-standard residues; d marks the D form. Peptide text beside a SMILES is read from it. * marks the point of attachment. Heptanedioyl = O=C(CCCCCC(=O)[*:2])[*:1]; NMeNle = CCCC[C@H](NC)C(=O)O; Malonamoyl = NC(=O)CC(=O)*; Methoxyacetyl = COCC(=O)*; Isobutyryl = CC(C)C(=O)*; X3 = O=C(CS(=O)(=O)O)*; Boc = CC(C)(C)OC(=O)*; X2 = COC(=O)CC(=O)*; X4 = CC(=O)CC(=O)*; βAla = NCCC(=O)O

The target in the assay is Gastrin/cholecystokinin type B receptor (Cavia porcellus). As to the kind of experiment: Binding affinity against cholecystokinin type B receptor on guinea pig cortex.

The Ki is the equilibrium dissociation constant of an inhibitor or competing ligand from its target. Read a high Ki as a looser hold on the target. `CCCC[C@@H](C(=O)N[C@@H](CC(=O)O)C(=O)N[C@@H](Cc1ccccc1)C(N)=O)N(C)C(=O)[C@H](Cc1c[nH]c2ccccc12)NC(=O)[C@H](C)N` [3-(2-{[2-(2-Amino-propionylamino)-3-(1H-indol-3-yl)-propionyl]-methyl-amino}-hexanoylamino)-N-(1-carbamoyl-2-phenyl-ethyl)-succinamic acid] returned a Ki of 20 nM.
In turn, `CCCC[C@@H](C(=O)N[C@@H](CC(=O)O)C(=O)N[C@@H](Cc1ccccc1)C(N)=O)N(C)C(=O)[C@H](Cc1c[nH]c2ccccc12)NC(=O)CC(N)=O` [3-(2-{[2-(2-Carbamoyl-acetylamino)-3-(1H-indol-3-yl)-propionyl]-methyl-amino}-hexanoylamino)-N-(1-carbamoyl-2-phenyl-ethyl)-succinamic acid] (Malonamoyl-W[NMeNle]DF-NH2) had a Ki of 2.05 nM.
On to `CCCC[C@@H](C(=O)N[C@@H](CC(=O)O)C(=O)N[C@@H](Cc1ccccc1)C(N)=O)N(C)C(=O)[C@H](Cc1c[nH]c2ccccc12)NC(=O)CCN` [3-(2-{[2-(3-Amino-propionylamino)-3-(1H-indol-3-yl)-propionyl]-methyl-amino}-hexanoylamino)-N-(1-carbamoyl-2-phenyl-ethyl)-succinamic acid] (H-[βAla]W[NMeNle]DF-NH2), for which the Ki was 95 nM.
Take `CCCC[C@@H](C(=O)N[C@@H](CC(=O)O)C(=O)N[C@@H](Cc1ccccc1)C(N)=O)N(C)C(=O)[C@H](Cc1c[nH]c2ccccc12)NC(=O)CCNC(=O)OC(C)(C)C` [3-(2-{[2-(3-tert-Butoxycarbonylamino-propionylamino)-3-(1H-indol-3-yl)-propionyl]-methyl-amino}-hexanoylamino)-N-(1-carbamoyl-2-phenyl-ethyl)-succinamic acid] ({Boc-βAla}-W[NMeNle]DF-NH2): the inhibition constant Ki was found to be 1.35 nM.
The result for `CCCC[C@@H](C(=O)N[C@@H](CC(=O)O)C(=O)N[C@@H](Cc1ccccc1)C(N)=O)N(C)C(=O)[C@@H](N)Cc1c[nH]c2ccccc12` [3-(2-{[2-Amino-3-(1H-indol-3-yl)-propionyl]-methyl-amino}-hexanoylamino)-N-(1-carbamoyl-2-phenyl-ethyl)-succinamic acid] (H-W[NMeNle]DF-NH2) reads 2.6 nM; that for `CCCC[C@@H](C(=O)N[C@@H](CC(=O)O)C(=O)N[C@@H](Cc1ccccc1)C(N)=O)N(C)C(=O)[C@H](Cc1c[nH]c2ccccc12)NC(=O)CCCCCC(=O)O` [6-[1-({1-[1-(1-Carbamoyl-2-phenyl-ethylcarbamoyl)-2-carboxy-ethylcarbamoyl]-pentyl}-methyl-carbamoyl)-2-(1H-indol-3-yl)-ethylcarbamoyl]-hexanoic acid] (Heptanedioyl-W[NMeNle]DF-NH2), 992 nM; that for `CCCC[C@@H](C(=O)N[C@@H](CC(=O)O)C(=O)N[C@@H](Cc1ccccc1)C(N)=O)N(C)C(=O)[C@H](Cc1c[nH]c2ccccc12)NC(=O)COC` [N-(1-Carbamoyl-2-phenyl-ethyl)-3-(2-{[3-(1H-indol-3-yl)-2-(2-methoxy-acetylamino)-propionyl]-methyl-amino}-hexanoylamino)-succinamic acid] (Methoxyacetyl-W[NMeNle]DF-NH2), 2.52 nM.
The result for `CCCC[C@@H](C(=O)N[C@@H](CC(=O)O)C(=O)N[C@@H](Cc1ccccc1)C(N)=O)N(C)C(=O)[C@H](Cc1c[nH]c2ccccc12)NC(=O)CC(=O)OC` [N-(1-Carbamoyl-2-phenyl-ethyl)-3-(2-{[3-(1H-indol-3-yl)-2-(2-methoxycarbonyl-acetylamino)-propionyl]-methyl-amino}-hexanoylamino)-succinamic acid] (X2-W[NMeNle]DF-NH2) reads 3.61 nM; that for `CCCC[C@@H](C(=O)N[C@@H](CC(=O)O)C(=O)N[C@@H](Cc1ccccc1)C(N)=O)N(C)C(=O)[C@H](Cc1c[nH]c2ccccc12)NC(=O)CS(=O)(=O)O` [N-(1-Carbamoyl-2-phenyl-ethyl)-3-(2-{[3-(1H-indol-3-yl)-2-(2-sulfo-acetylamino)-propionyl]-methyl-amino}-hexanoylamino)-succinamic acid] (X3-W[NMeNle]DF-NH2), 0.54 nM; that for `CCCC[C@@H](C(=O)N[C@@H](CC(=O)O)C(=O)N[C@@H](Cc1ccccc1)C(N)=O)N(C)C(=O)[C@H](Cc1c[nH]c2ccccc12)NC(=O)CC(C)=O` [N-(1-Carbamoyl-2-phenyl-ethyl)-3-(2-{[3-(1H-indol-3-yl)-2-(3-oxo-butyrylamino)-propionyl]-methyl-amino}-hexanoylamino)-succinamic acid] (X4-W[NMeNle]DF-NH2), 3.84 nM.
For the compound `CCCC[C@@H](C(=O)N[C@@H](CC(=O)O)C(=O)N[C@@H](Cc1ccccc1)C(N)=O)N(C)C(=O)[C@H](Cc1c[nH]c2ccccc12)NC(=O)C(C)C` [N-(1-Carbamoyl-2-phenyl-ethyl)-3-(2-{[3-(1H-indol-3-yl)-2-isobutyrylamino-propionyl]-methyl-amino}-hexanoylamino)-succinamic acid] (Isobutyryl-W[NMeNle]DF-NH2), the Ki was 1.37 nM.
